From patent US6376497B1, “Antifungal azole derivatives having a fluorinated vinyl group and process for preparing same” (Korea Research Institute of Chemical Technology, priority 1999, dated 2002)

Legend:
Assay in all cases: In vitro antifungal activity, microbroth dilution MIC
Format in all cases: cell-based
Settings in all cases: RPMI-1640, 35° C., 4 to 48 hours, no growth observed
[1] = system: Aspergillus niger A. 16404
Summary of the method: (§1)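 Broth microdilution adapted from NCCLS M27, in RPMI-1640 with 0.165 M MOPS, pH 7.0. Yeast or mould inoculum at 2×10^3 CFU/ml was mixed 1:1 with DMSO-derived compound solutions (200 to 0.10 μg/ml before mixing) and incubated at 35 °C for 4 to 48 h. MIC was the concentration showing no growth.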

[2] = system: Cryptococcus neoformans IFM. 40092
Summary of the method: as §1

[3] = system: Cryptococcus neoformans B. 42419
Summary of the method: as §1

[4] = system: Candida albicans IFO. 1385
Summary of the method: as §1

[5] = system: Candida albicans A. 10231
Summary of the method: as §1

[6] = system: Aspergillus furnigatus B. 19119
Summary of the method: as §1

[7] = system: Candida pseudotropicalis K. 11658
Summary of the method: as §1

[8] = system: Torulopsis glabrata B. 16205
Summary of the method: as §1

[9] = system: Candida albicans C1-2
Summary of the method: as §1

[10] = system: Trichophyton mentagrophytes A. 9129
Summary of the method: as §1

[11] = system: Candida parapsitosis A. 7330
Summary of the method: as §1

[12] = system: Candida krusei K. 11655
Summary of the method: as §1

[13] = system: Trichophyton mentagrophytes B. 32663
Summary of the method: as §1

[14] = system: Candida tropicalis A. 13803
Summary of the method: as §1

[15] = system: Cryptococcus neoformans A. 34144
Summary of the method: as §1

Row | Structure (SMILES) | Minimal inhibitory concentration(MIC), A. niger A. 16404 [1] [µg/mL] | Minimal inhibitory concentration(MIC), Cry. neoformans IFM. 40092 [2] | Minimal inhibitory concentration(MIC), Cry. neoformans B. 42419 [3] [µg/mL] | Minimal inhibitory concentration(MIC), C. albicans IFO. 1385 [4] [µg/mL] | Minimal inhibitory concentration(MIC), C. albicans A. 10231 [5] [µg/mL] | Minimal inhibitory concentration(MIC), A furnigatus B. 19119 [6] [µg/mL] | Minimal inhibitory concentration(MIC), C. pseudotropicalis K. 11658 [7] [µg/mL] | Minimal inhibitory concentration(MIC), T. glabrata B. 16205 [8] [µg/mL] | Minimal inhibitory concentration(MIC), C. albicans C1-2 [9] [µg/mL] | Minimal inhibitory concentration(MIC), T. mentagrophytes A. 9129 [10] [µg/mL] | Minimal inhibitory concentration(MIC), C. parapsitosis A. 7330 [11] [µg/mL] | Minimal inhibitory concentration(MIC), C. krusei K. 11655 [12] [µg/mL] | Minimal inhibitory concentration(MIC), T. mentagrophytes B. 32663 [13] [µg/mL] | Minimal inhibitory concentration(MIC), C. tropicalis A. 13803 [14] [µg/mL] | Minimal inhibitory concentration(MIC), Cry. neoformans A. 34144 [15] [µg/mL]
1 | Cc1cccc(C(=C(F)N2CCN(c3ccc(OCC4COC(Cn5ccnc5)(c5ccc(Cl)cc5Cl)O4)cc3)CC2)C(F)(F)F)c1 (mixture of isomers) [Ex. 125] | >100 | 0.39 µg/mL | 3.13 | 1.56 | 25.0 | >100 | >100 | 50.0 | 25.0 | 6.25 | >100 | >100 | 3.13 | 100 | 1.56
2 | CCc1ccc(C(=C(F)N2CCN(c3ccc(OCC4COC(Cn5ccnc5)(c5ccc(Cl)cc5Cl)O4)cc3)CC2)C(F)(F)F)cc1 (mixture of isomers) [Ex. 127] | >100 | 0.39 µg/mL | 0.78 | 3.13 | >100 | >100 | 1.56 | >100 | >100 | 12.5 | 3.13 | 3.13 | 3.13 | >100 | 0.78
3 | CC(C)(C)c1ccc(C(=C(F)N2CCN(c3ccc(OCC4COC(Cn5ccnc5)(c5ccc(Cl)cc5Cl)O4)cc3)CC2)C(F)(F)F)cc1 (mixture of isomers) [Ex. 128] | >100 | ≦0.10 μg/ml | 0.78 | 1.56 | >100 | >100 | 1.56 | >100 | >100 | 12.5 | 3.13 | 3.13 | 6.25 | >100 | 0.78
4 | Cc1ccc(C(=C(F)N2CCN(c3ccc(OCC4COC(Cn5ccnc5)(c5ccc(Cl)cc5Cl)O4)cc3)CC2)C(F)(F)F)cc1C (mixture of isomers) [Ex. 129] | >100 | 0.39 µg/mL | 0.78 | 3.13 | >100 | >100 | 1.56 | >100 | >100 | 12.5 | 3.13 | 3.13 | 3.13 | >100 | 0.78
5 | FC(=C(c1ccc(C(F)(F)F)cc1)C(F)(F)F)N1CCN(c2ccc(OCC3COC(Cn4ccnc4)(c4ccc(Cl)cc4Cl)O3)cc2)CC1 (mixture of isomers) [Ex. 130] | >100 | 0.20 µg/mL | 0.78 | 3.13 | >100 | >100 | 1.56 | >100 | >100 | 25.0 | 1.56 | 1.56 | 12.5 | >100 | 0.78
6 | COc1ccc(C(=C(F)N2CCN(c3ccc(OCC4COC(Cn5ccnc5)(c5ccc(Cl)cc5Cl)O4)cc3)CC2)C(F)(F)F)cc1 (mixture of isomers) [Ex. 131] | >100 | 0.20 µg/mL | 0.78 | 1.56 | >100 | >100 | 1.56 | >100 | >100 | 6.25 | 3.13 | 1.56 | 1.56 | >100 | 0.39
7 | FC(=C(c1ccc2c(c1)OCO2)C(F)(F)F)N1CCN(c2ccc(OCC3COC(Cn4ccnc4)(c4ccc(Cl)cc4Cl)O3)cc2)CC1 (mixture of isomers) [Ex. 132] | >100 | 0.20 µg/mL | 0.78 | 1.56 | >100 | >100 | 1.56 | >100 | >100 | 6.25 | 1.56 | 1.56 | 1.56 | >100 | 0.78
